Columns and labels:
human JAK2 = human JAK2 (Homo sapiens (Human), UniProt O60674); conditions: read-out: JAK2 IC50
human FAK = human FAK (Homo sapiens (Human), UniProt Q05397); conditions: read-out: FAK IC50
human FAK, sequence (Q05397 whole entry): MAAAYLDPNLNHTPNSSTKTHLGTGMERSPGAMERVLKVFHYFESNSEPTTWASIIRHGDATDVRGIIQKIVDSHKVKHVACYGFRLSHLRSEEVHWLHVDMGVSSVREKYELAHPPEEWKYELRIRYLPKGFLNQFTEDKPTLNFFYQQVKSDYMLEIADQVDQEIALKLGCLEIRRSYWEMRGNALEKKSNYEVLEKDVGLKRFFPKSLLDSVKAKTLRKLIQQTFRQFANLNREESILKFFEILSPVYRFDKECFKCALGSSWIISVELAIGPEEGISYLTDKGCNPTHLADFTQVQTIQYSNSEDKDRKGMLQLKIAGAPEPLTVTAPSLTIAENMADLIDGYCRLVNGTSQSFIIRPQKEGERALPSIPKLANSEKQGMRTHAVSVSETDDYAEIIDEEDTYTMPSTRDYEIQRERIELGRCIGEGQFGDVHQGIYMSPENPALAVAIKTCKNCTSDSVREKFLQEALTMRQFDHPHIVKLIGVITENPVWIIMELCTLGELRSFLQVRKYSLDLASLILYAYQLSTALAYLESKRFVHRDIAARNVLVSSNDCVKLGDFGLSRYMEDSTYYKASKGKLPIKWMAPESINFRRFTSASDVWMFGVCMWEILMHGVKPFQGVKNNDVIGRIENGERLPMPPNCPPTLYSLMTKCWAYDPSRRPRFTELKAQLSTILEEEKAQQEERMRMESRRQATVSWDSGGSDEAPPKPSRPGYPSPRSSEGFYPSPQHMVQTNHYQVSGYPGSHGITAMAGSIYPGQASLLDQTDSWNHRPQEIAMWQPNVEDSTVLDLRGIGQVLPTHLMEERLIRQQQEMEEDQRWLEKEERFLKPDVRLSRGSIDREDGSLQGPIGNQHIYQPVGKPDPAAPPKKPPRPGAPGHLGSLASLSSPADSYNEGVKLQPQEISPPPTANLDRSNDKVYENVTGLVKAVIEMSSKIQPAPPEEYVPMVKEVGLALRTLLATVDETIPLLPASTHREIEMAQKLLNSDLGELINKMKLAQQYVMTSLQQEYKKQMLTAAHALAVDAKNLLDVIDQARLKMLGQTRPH

human JAK2, sequence (O60674 815-1132): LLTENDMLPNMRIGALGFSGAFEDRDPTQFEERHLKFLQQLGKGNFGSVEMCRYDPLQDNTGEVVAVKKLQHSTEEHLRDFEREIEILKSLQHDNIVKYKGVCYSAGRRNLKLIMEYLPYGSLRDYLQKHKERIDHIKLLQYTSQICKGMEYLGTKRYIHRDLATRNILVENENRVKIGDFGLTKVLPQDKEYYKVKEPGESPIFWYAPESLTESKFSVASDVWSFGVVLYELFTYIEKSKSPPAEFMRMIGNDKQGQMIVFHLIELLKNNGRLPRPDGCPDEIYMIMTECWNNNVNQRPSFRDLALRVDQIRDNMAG

| SMILES | IC50 (human JAK2) [nM] | IC50 (human FAK) [nM] |
| --- | --- | --- |
| CN1CCN(Cc2ccc(Nc3nc4cccc(-c5ccc(S(C)(=O)=O)cc5)n4n3)cc2)CC1 [Example 86, [5-(4-Methanesulfonyl-phenyl)-[1,2,4]triazolo[1,5-a]pyridin-2-yl]-[4-(4-methyl-piperazin-1-ylmethyl)-phenyl]-amine] | 1.7 | 264 |
| CN1CCN(Cc2ccc(Nc3nc4cccc(-c5cccc(S(C)(=O)=O)c5)n4n3)cc2)CC1 [Example 88, [5-(3-Methanesulfonyl-phenyl)-[1,2,4]triazolo[1,5-a]pyridin-2-yl]-[4-(4-methyl-piperazin-1-ylmethyl)-phenyl]-amine] | 11.7 | 1030 |
| CN1CCN(c2ccc(NC(=O)Nc3nc4cccc(-c5cccc(S(C)(=O)=O)c5)n4n3)cc2)CC1 [Example 89, 1-[5-(3-Methanesulfonyl-phenyl)-[1,2,4]triazolo[1,5-a]pyridin-2-yl]-3-[4-(4-methyl-piperazin-1-yl)-phenyl]-urea] | 230 | 8830 |
| COc1ccc(Nc2nc3cccc(-c4ccc(S(C)(=O)=O)cc4)n3n2)cc1 [Example 91, [5-(4-Methanesulfonyl-phenyl)-[1,2,4]triazolo[1,5-a]pyridin-2-yl]-(4-methoxy-phenyl)-amine] | 1.9 | 2600 |
| CN1CCN(c2cccc(Nc3nc4cccc(-c5ccc(S(C)(=O)=O)cc5)n4n3)c2)CC1 [Example 92, [5-(4-Methanesulfonyl-phenyl)-[1,2,4]triazolo[1,5-a]pyridin-2-yl]-[3-(4-methyl-piperazin-1-yl)-phenyl]-amine] | 2.8 | 1270 |
| CS(=O)(=O)c1ccc(-c2cccc3nc(Nc4cccc(S(C)(=O)=O)c4)nn23)cc1 [Example 94, (3-Methanesulfonyl-phenyl)-[5-(4-methanesulfonyl-phenyl)-[1,2,4]triazolo[1,5-a]pyridin-2-yl]-amine] | 9.3 | 3000 |
| COc1ccc(Nc2nc3cccc(-c4ccc(CN5CCS(=O)(=O)CC5)cc4)n3n2)cc1 [Example 95, 5-{4-[(1,1-dioxidothiomorpholin-4-yl)methyl]phenyl}-N-(4-methoxyphenyl)[1,2,4]triazolo[1,5-a]pyridin-2-amine] | 1 | 2000 |
| CN1CCN(c2ccc(Nc3nc4c(-c5ccc(S(C)(=O)=O)cc5)cc(C(F)(F)F)cn4n3)cn2)CC1 [Example 104, [8-(4-Methanesulfonyl-phenyl)-6-trifluoromethyl-[1,2,4]triazolo[1,5-a]pyridin-2-yl]-[6-(4-methyl-piperazin-1-yl)-pyridin-3-yl]-amine] | 928 | 669 |
| CN1CCN(c2cccc(N(c3cccc(N4CCN(C)CC4)c3)c3nc4c(-c5ccc(S(C)(=O)=O)cc5)cc(F)cn4n3)c2)CC1 [Example 105, [6-Fluoro-8-(4-methanesulfonyl-phenyl)-[1,2,4]triazolo[1,5-a]pyridin-2-yl]-bis-[3-(4-methyl-piperazin-1-yl)-phenyl]-amine] | 324 | 1050 |
| CN1CCN(c2ccc(Nc3nc4c(-c5ccc(S(C)(=O)=O)cc5)cc(F)cn4n3)cc2)CC1 [Example 106, [6-Fluoro-8-(4-methanesulfonyl-phenyl)-[1,2,4]triazolo[1,5-a]pyridin-2-yl]-[4-(4-methyl-piperazin-1-yl)-phenyl]-amine] | 31.6 | 3000 |
| CN1CCN(c2cccc(Nc3nc4cncc(-c5ccc(S(C)(=O)=O)cc5)n4n3)c2)CC1 [Example 107, [5-(4-Methanesulfonyl-phenyl)-[1,2,4]triazolo[1,5-a]pyrazin-2-yl]-[3-(4-methyl-piperazin-1-yl)-phenyl]-amine] | 307 | 855 |
| CN1CCN(c2cccc(Nc3nc4c(Nc5cccc(S(C)(=O)=O)c5)cccn4n3)c2)CC1 [Example 110, N(8)-(3-Methanesulfonyl-phenyl)-N(2)-[3-(4-methyl-piperazin-1-yl)-phenyl]-[1,2,4]triazolo[1,5-a]pyridine-2,8-diamine] | 1310 | 3000 |
| CN1CCN(c2cccc(Nc3nc4c(Nc5cccnc5N(C)S(C)(=O)=O)cccn4n3)c2)CC1 [Example 111, N-Methyl-N-(3-{2-[3-(4-methyl-piperazin-1-yl)-phenylamino]-[1,2,4]triazolo[1,5-a]pyridin-8-ylamino}-pyridin-2-yl)-methanesulfonamide] | 60.3 | 2000 |
| CS(=O)(=O)c1ccc(Nc2nc3c(-c4ccc(S(C)(=O)=O)cc4)cccn3n2)cc1 [Example 112, (4-Methanesulfonyl-phenyl)-[8-(4-methanesulfonyl-phenyl)-[1,2,4]triazolo[1,5-a]pyridin-2-yl]-amine] | 1.3 | 531 |
| CS(=O)(=O)c1ccc(-c2cccn3nc(Nc4cccc(S(C)(=O)=O)c4)nc23)cc1 [Example 113, (3-Methanesulfonyl-phenyl)-[8-(4-methanesulfonyl-phenyl)-[1,2,4]triazolo[1,5-a]pyridin-2-yl]-amine] | 5.57 | 693 |
| CS(=O)(=O)c1ccc(-c2cccn3nc(Nc4ccc(CN5CCS(=O)(=O)CC5)cc4)nc23)cc1 [Example 114, N-{4-[(1,1-dioxidothiomorpholin-4-yl)methyl]phenyl}-8-[4-(methylsulfonyl)phenyl][1,2,4]triazolo[1,5-a]pyridin-2-amine] | 0.75 | 1480 |
| CS(=O)(=O)c1ccc(-c2cccc3nc(Nc4ccc(CN5CCS(=O)(=O)CC5)cc4)nn23)cc1 [Example 115, N-{4-[(1,1-dioxidothiomorpholin-4-yl)methyl]phenyl}-5-[4-(methylsulfonyl)phenyl][1,2,4]triazolo[1,5-a]pyridin-2-amine] | 0.66 | 1050 |
| CN1CCN(Cc2cccc(Nc3nc4c(-c5ccc(S(C)(=O)=O)cc5)cccn4n3)c2)CC1 [Example 116, [8-(4-Methanesulfonyl-phenyl)-[1,2,4]triazolo[1,5-a]pyridin-2-yl]-[3-(4-methyl-piperazin-1-ylmethyl)-phenyl]-amine] | 3.07 | 3000 |
| CS(=O)(=O)c1ccc(-c2cccc3nc(Nc4cccc(CN5CCOCC5)c4)nn23)cc1 [Example 117, [5-(4-Methanesulfonyl-phenyl)-[1,2,4]triazolo[1,5-a]pyridin-2-yl]-(3-morpholin-4-ylmethyl-phenyl)-amine] | 0.95 | 1470 |
| CN1CCN(Cc2cccc(Nc3nc4cccc(-c5ccc(S(C)(=O)=O)cc5)n4n3)c2)CC1 [Example 118, [5-(4-Methanesulfonyl-phenyl)-[1,2,4]triazolo[1,5-a]pyridin-2-yl]-[3-(4-methyl-piperazin-1-ylmethyl)-phenyl]-amine] | 1.43 | 2860 |
| CN(c1ccc(-c2cccn3nc(Nc4ccc(CN5CCS(=O)(=O)CC5)cc4)nc23)cc1)S(C)(=O)=O [Example 119, N-{4-[2-({4-[(1,1-dioxidothiomorpholin-4-yl)methyl]phenyl}amino)[1,2,4]triazolo[1,5-a]pyridin-8-yl]phenyl}-N-methylmethanesulfonamide] | 0.27 | 10000 |
| CS(=O)(=O)c1ccc(-c2cccn3nc(Nc4cccc(CN5CCS(=O)(=O)CC5)c4)nc23)cc1 [Example 120, N-{3-[(1,1-dioxidothiomorpholin-4-yl)methyl]phenyl}-8-[4-(methylsulfonyl)phenyl][1,2,4]triazolo[1,5-a]pyridin-2-amine] | 0.67 | 2000 |
| CS(=O)(=O)c1ccc(-c2cccc3nc(Nc4cccc(CN5CCS(=O)(=O)CC5)c4)nn23)cc1 [Example 121, N-{3-[(1,1-dioxidothiomorpholin-4-yl)methyl]phenyl}-5-[4-(methylsulfonyl)phenyl][1,2,4]triazolo[1,5-a]pyridin-2-amine] | 0.55 | 999 |
| CN1CCN(c2ccc(Nc3nc4c(NCc5cccnc5N(C)S(C)(=O)=O)cccn4n3)cc2)CC1 [Example 122, N-Methyl-N-[3-({2-[4-(4-methyl-piperazin-1-yl)-phenylamino]-[1,2,4]triazolo[1,5-a]pyridin-8-ylamino}-methyl)-pyridin-2-yl]-methanesulfonamide] | 20.7 | 30 |
| CN1CCC(c2ccc(Nc3nc4c(NCc5cccnc5N(C)S(C)(=O)=O)cccn4n3)cc2)CC1 [Example 123, N-Methyl-N-[3-({2-[4-(1-methyl-piperidin-4-yl)-phenylamino]-[1,2,4]triazolo[1,5-a]pyridin-8-ylamino}-methyl)-pyridin-2-yl]-methanesulfonamide] | 40.3 | 77.3 |
| CN(c1ncccc1CNc1cccn2nc(Nc3ccc(OCCN4CCCC4)cc3)nc12)S(C)(=O)=O [Example 124, N-Methyl-N-[3-({2-[4-(2-pyrrolidin-1-yl-ethoxy)-phenylamino]-[1,2,4]triazolo[1,5-a]pyridin-8-ylamino}-methyl)-pyridin-2-yl]-methanesulfonamide] | 41.2 | 59.7 |
| CN1CCC(c2ccc(Nc3nc4c(Nc5ccccc5S(C)(=O)=O)cccn4n3)cc2)CC1 [Example 125, N(8)-(2-Methanesulfonyl-phenyl)-N(2)-[4-(1-methyl-piperidin-4-yl)-phenyl]-[1,2,4]triazolo[1,5-a]pyridine-2,8-diamine] | 6.6 | 2050 |
| CS(=O)(=O)c1ccccc1Nc1cccn2nc(Nc3ccc(OCCN4CCCC4)cc3)nc12 [Example 126, N(8)-(2-Methanesulfonyl-phenyl)-N(2)-[4-(2-pyrrolidin-1-yl-ethoxy)-phenyl]-[1,2,4]triazolo[1,5-a]pyridine-2,8-diamine] | 14.3 | 1300 |
| CN(c1cccc(-c2cccn3nc(Nc4ccc(OCCN5CCCC5)cc4)nc23)c1)S(C)(=O)=O [Example 128, N-Methyl-N-(3-{2-[4-(2-pyrrolidin-1-yl-ethoxy)-phenylamino]-[1,2,4]triazolo[1,5-a]pyridin-8-yl}-phenyl)-methanesulfonamide] | 34 | 2310 |
| CN1CCC(c2cccc(Nc3nc4c(-c5cccc(N(C)S(C)(=O)=O)c5)cccn4n3)c2)CC1 [Example 129, N-Methyl-N-(3-{2-[3-(1-methyl-piperidin-4-yl)-phenylamino]-[1,2,4]triazolo[1,5-a]pyridin-8-yl}-phenyl)-methanesulfonamide] | 8.88 | 759 |
